# Measurements: US20060069132A1, “Azolecarboxamide herbicides” (priority 2004, published 2006)
# Like-named read-outs stand apart in the source and are kept apart here.
# Columns and labels:
# pigweed = experiment: Test C pre-/postemergence herbicide test; format: in vivo, Amaranthus retroflexus; conditions: for Pigweed plant response rating: 500 g ai/ha
# Summary of the method: (§1)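 Visual injury scores run from 0 (no effect) to 100 (complete control), assessed relative to untreated controls 12 to 14 days after treatment in the greenhouse. Chemicals were formulated in a non-phytotoxic solvent mixture with surfactant and applied to soil after planting or to emerged plants at the 1- to 4-leaf stage.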
# lambsquarters [1] = experiment: Test B pre-/postemergence herbicide test; format: in vivo, Chenopodium album; conditions: for Lambsquarters plant response rating: postemergence
# Summary of the method: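 Evaluation is visual, comparing treated with control plants on a scale where 0 means no effect and 100 means full control. Treatments were preemergence, or postemergence on seedlings 2–18 cm tall, and held 13–15 days in the greenhouse.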
# johnsongrass = experiment: Test C pre-/postemergence herbicide test; format: in vivo, Sorghum halepense; conditions: for Johnsongrass plant response rating: 500 g ai/ha
# Summary of the method: as §1
# Surinam grass = experiment: Test C pre-/postemergence herbicide test; format: in vivo, Urochloa decumbens; conditions: for Surinam Grass plant response rating: 500 g ai/ha
# Summary of the method: as §1
# large crabgrass = experiment: Test A pre-/postemergence herbicide test; format: in vivo, Digitaria sanguinalis; conditions: for pest or weed control at 500 g/ha / pest or weed control at 2000 g/ha: Digitaria sanguinalis, 240 h
# Summary of the method: (§2)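 Pre: seeded sandy loam, directed soil spray, compound in non-phytotoxic solvent + surfactant. Post: 1–2-leaf plants (2–10 cm), sprayed to runoff. Greenhouse ~10 d; visual injury vs untreated, 0–100 scale.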
# lambsquarters [2] = experiment: Test C pre-/postemergence herbicide test; format: in vivo, Chenopodium album; conditions: for Lambsquarters plant response rating: 500 g ai/ha
# Summary of the method: as §1
# giant foxtail = experiment: Test A pre-/postemergence herbicide test; format: in vivo, Setaria faberi; conditions: for pest or weed control at 500 g/ha / pest or weed control at 2000 g/ha: Setaria faberi, 240 h
# Summary of the method: as §2
# cocklebur = experiment: Test B pre-/postemergence herbicide test; format: in vivo, Xanthium strumarium; conditions: for Cocklebur plant response rating: postemergence
# Summary of the method: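 Pre: seeds sown, then sprayed. Post: 1–4-leaf plants (2–18 cm) sprayed at the same time. Paddy: flooded, treated at 2-leaf stage. Formulation: non-phytotoxic solvent with surfactant. Greenhouse 13–15 days; visual 0–100 score relative to controls.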
# woolly cupgrass = experiment: Test C pre-/postemergence herbicide test; format: in vivo, Eriochloa villosa; conditions: for Cupgrass, Woolly plant response rating: 500 g ai/ha
# Summary of the method: as §1
# [3] = Preemergence, scale 0 to 100, 0 no effect, 100 complete control
# [4] = Postemergence, 250 g ai/ha, scale 0 to 100, 0 no effect, 100 complete control
# [5] = postemergence, 125 g ai/ha, scale 0 to 100
# [6] = postemergence, 62 g ai/ha, scale 0 to 100
# [7] = 125 g ai/ha, 0 = no effect, 100 = complete control, preemergence
# [8] = 500 g ai/ha, visual rating, 0 = no effect, 100 = complete control, preemergence
# [9] = 125 g ai/ha, visual rating, scale 0 (no effect) to 100 (complete control)
# [10] = 500 g ai/ha, scale 0 to 100, 0 is no effect, 100 is complete control
# [11] = Postemergence, 500 g ai/ha, 0 to 100 scale, 0 no effect, 100 complete control
# [12] = Postemergence, 2000 g ai/ha, 0 to 100 scale, 0 no effect, 100 complete control
# [13] = Preemergence, 2000 g ai/ha, visual rating, 0 to 100 scale (0 no effect, 100 complete control)
# [14] = preemergence, 500 g ai/ha, visual injury, 0 to 100 scale (0 no effect, 100 complete control)
smiles,measurement,setting,value
"CCn1nc(C(C)(C)C)cc1C(=O)Nc1cc(C(=O)N(C)C)ccc1F [Compound 6, N-[5-[(dimethylamino)carbonyl]-2-fluorophenyl]-3-(1,1-dimethylethyl)-1-ethyl-1H-pyrazole-5-carboxamide]","Plant response rating (0 = no effect, 100 = complete control), Pigweed","pigweed; 62 g ai/ha, preemergence",100
same,pest or weed control at 250 g/ha,"pigweed; Amaranthus retroflexus, pre-emergence, 250 g ai/ha, scale 0 to 100 (0 no effect, 100 complete control), visual, 12 to 14 days, read-out: Plant response rating, Pigweed",100%
same,Pigweed plant response rating,pigweed; [3],100
same,pest or weed control at 125 g/ha,"lambsquarters [1]; Chenopodium album, post-emergence, 336 h, Postemergence, 125 g ai/ha, scale 0 (no effect) to 100 (complete control), read-out: Lambsquarters plant response rating",30%
same,pest or weed control at 500 g/ha,"lambsquarters [1]; Chenopodium album, post-emergence, 336 h, Postemergence, 500 g ai/ha, visual rating after 13 to 15 days, scale 0 (no effect) to 100 (complete control), read-out: Plant response rating, Lambsquarters",100%
same,pest or weed control at 500 g/ha,"lambsquarters [1]; Chenopodium album, pre-emergence, 336 h, Preemergence, 500 g ai/ha, scale 0 to 100, read-out: Lambsquarters plant response rating",100%
same,"Plant response rating (0 = no effect, 100 = complete control), Johnsongrass","johnsongrass; 62 g ai/ha, preemergence",70
same,Johnsongrass plant response rating,johnsongrass; [3],100
same,pest or weed control at 125 g/ha,"johnsongrass; Sorghum halepense, pre-emergence, 125 g ai/ha, scale 0-100, read-out: Plant response rating, Johnsongrass",90%
same,pest or weed control at 250 g/ha,"johnsongrass; Sorghum halepense, pre-emergence, 250 g ai/ha, scale 0 to 100 (0 no effect, 100 complete control), visual, 12 to 14 days, read-out: Plant response rating, Johnsongrass",90%
same,"Plant response rating (0 = no effect, 100 = complete control), Surinam Grass","Surinam grass; 62 g ai/ha, preemergence",85
same,Surinam Grass plant response rating,Surinam grass; [3],100
same,pest or weed control at 250 g/ha,"Surinam grass; Urochloa decumbens, pre-emergence, 312 h, 250 g ai/ha, scale 0 to 100 (0 no effect, 100 complete control), visual, 12 to 14 days, read-out: Plant response rating, Surinam Grass",100%
same,pest or weed control at 500 g/ha,"large crabgrass; post-emergence, Postemergence, 500 g ai/ha, 0 to 100 scale, 0 no effect, 100 complete control, read-out: Plant response rating, Crabgrass, Large",80%
same,pest or weed control at 2000 g/ha,"large crabgrass; post-emergence, Postemergence, 2000 g ai/ha, 0 to 100 scale, 0 no effect, 100 complete control, read-out: Plant response rating, Crabgrass, Large",90%
same,pest or weed control at 500 g/ha,"large crabgrass; pre-emergence, Preemergence, 500 g ai/ha, visual rating, 0 to 100 scale (0 no effect, 100 complete control), read-out: Crabgrass, Large plant response rating",100%
same,pest or weed control at 2000 g/ha,"large crabgrass; pre-emergence, Preemergence, 2000 g ai/ha, 0 to 100 scale, 0 no effect, 100 complete control, read-out: Crabgrass, Large plant response rating",100%
same,"Plant response rating (0 = no effect, 100 = complete control), Lambsquarters","lambsquarters [2]; 62 g ai/ha, preemergence",100
same,pest or weed control at 125 g/ha,"lambsquarters [2]; Chenopodium album, pre-emergence, 125 g ai/ha, scale 0-100, read-out: Plant response rating, Lambsquarters",100%
same,pest or weed control at 250 g/ha,"lambsquarters [2]; Chenopodium album, pre-emergence, 250 g ai/ha, scale 0 to 100 (0 no effect, 100 complete control), visual, 12 to 14 days, read-out: Plant response rating, Lambsquarters",100%
same,Lambsquarters plant response rating,lambsquarters [2]; [3],100
same,pest or weed control at 500 g/ha,"giant foxtail; post-emergence, Postemergence, 500 g ai/ha, 0 to 100 scale, 0 no effect, 100 complete control, read-out: Plant response rating, Foxtail, Giant",70%
same,pest or weed control at 2000 g/ha,"giant foxtail; post-emergence, Postemergence, 2000 g ai/ha, 0 to 100 scale, 0 no effect, 100 complete control, read-out: Plant response rating, Foxtail, Giant",70%
same,pest or weed control at 500 g/ha,"giant foxtail; pre-emergence, Preemergence, 500 g ai/ha, visual rating, 0 to 100 scale (0 no effect, 100 complete control), read-out: Foxtail, Giant plant response rating",100%
same,pest or weed control at 2000 g/ha,"giant foxtail; pre-emergence, Preemergence, 2000 g ai/ha, 0 to 100 scale, 0 no effect, 100 complete control, read-out: Foxtail, Giant plant response rating",100%
same,pest or weed control at 125 g/ha,"cocklebur; Xanthium strumarium, post-emergence, Postemergence, 125 g ai/ha, scale 0 (no effect) to 100 (complete control), read-out: Cocklebur plant response rating",0%
same,pest or weed control at 500 g/ha,"cocklebur; Xanthium strumarium, post-emergence, Postemergence, 500 g ai/ha, visual rating after 13 to 15 days, scale 0 (no effect) to 100 (complete control), read-out: Plant response rating, Cocklebur",80%
same,pest or weed control at 500 g/ha,"cocklebur; Xanthium strumarium, pre-emergence, Preemergence, 500 g ai/ha, scale 0 to 100, read-out: Cocklebur plant response rating",100%
same,"Plant response rating (0 = no effect, 100 = complete control), Cupgrass, Woolly","woolly cupgrass; 62 g ai/ha, preemergence",50
same,pest or weed control at 125 g/ha,"woolly cupgrass; Eriochloa villosa, pre-emergence, 312 h, 125 g ai/ha, scale 0-100, read-out: Plant response rating, Cupgrass, Woolly",55%
same,pest or weed control at 250 g/ha,"woolly cupgrass; Eriochloa villosa, pre-emergence, 312 h, 250 g ai/ha, scale 0 to 100 (0 no effect, 100 complete control), visual, 12 to 14 days, read-out: Plant response rating, Cupgrass, Woolly",75%
same,"Cupgrass, Woolly plant response rating",woolly cupgrass; [3],75
CCn1nc(C(C)(C)C)cc1C(=O)Nc1cccc(OC(F)(F)F)c1 [Compound 272],Pigweed plant response rating,"pigweed; Postemergence, scale 0 to 100",100
same,"Plant response rating, Pigweed",pigweed; [4],100
same,"Plant response rating, Pigweed",pigweed; [5],100
same,"Plant response rating, Pigweed",pigweed; [6],100
same,Lambsquarters plant response rating (0 to 100 scale),lambsquarters [1]; [7],100
same,"Plant response rating, Lambsquarters",lambsquarters [1]; [8],100
same,Lambsquarters plant response rating,lambsquarters [1]; [9],100
same,Lambsquarters plant response rating,lambsquarters [1]; [10],100
same,Johnsongrass plant response rating,"johnsongrass; Postemergence, scale 0 to 100",55
same,"Plant response rating, Johnsongrass",johnsongrass; [4],45
same,"Plant response rating, Johnsongrass",johnsongrass; [5],40
same,"Plant response rating, Johnsongrass",johnsongrass; [6],10
same,Surinam Grass plant response rating,"Surinam grass; Postemergence, scale 0 to 100",60
same,"Plant response rating, Surinam Grass",Surinam grass; [4],35
same,"Plant response rating, Surinam Grass",Surinam grass; [5],10
same,"Plant response rating, Surinam Grass",Surinam grass; [6],5
same,"Crabgrass, Large plant response rating",large crabgrass; [11],55
same,"Plant response rating, Crabgrass, Large",large crabgrass; [12],90
same,"Crabgrass, Large plant response rating",large crabgrass; [13],100
same,"Crabgrass, Large plant response rating",large crabgrass; [14],85
same,Lambsquarters plant response rating,"lambsquarters [2]; Postemergence, scale 0 to 100",100
same,"Plant response rating, Lambsquarters",lambsquarters [2]; [4],100
same,"Plant response rating, Lambsquarters",lambsquarters [2]; [5],100
same,"Plant response rating, Lambsquarters",lambsquarters [2]; [6],100
same,"Foxtail, Giant plant response rating",giant foxtail; [11],45
same,"Plant response rating, Foxtail, Giant",giant foxtail; [12],95
same,"Foxtail, Giant plant response rating",giant foxtail; [13],100
same,"Foxtail, Giant plant response rating",giant foxtail; [14],90
same,Cocklebur plant response rating (0 to 100 scale),cocklebur; [7],0
same,"Plant response rating, Cocklebur",cocklebur; [8],0
same,Cocklebur plant response rating,cocklebur; [9],40
same,Cocklebur plant response rating,cocklebur; [10],90
same,"Cupgrass, Woolly plant response rating","woolly cupgrass; Postemergence, scale 0 to 100",65
same,"Plant response rating, Cupgrass, Woolly",woolly cupgrass; [4],60
same,"Plant response rating, Cupgrass, Woolly",woolly cupgrass; [5],40
same,"Plant response rating, Cupgrass, Woolly",woolly cupgrass; [6],25
